Tested on: SARS-CoV-2
Assay: microbe, parasite or virus in culture
Conditions: Severe acute respiratory syndrome coronavirus 2, Vero C1008, 48 h

Row | Structure (SMILES) | IC50 [µM] | IC50 (read-out: pIC50 (converted)) [µM]
1 | COc1ccc(CCNCC(O)COc2cccc(C)c2)cc1OC (centres undefined) [BEVANTOLOL] | > 20 | > 20
2 | C=C(C)[C@@H]1CC[C@]2(C(=O)O)CC[C@]3(C)[C@H](CC[C@@H]4[C@@]5(C)CC[C@H](OC(=O)CC(C)(C)C(=O)O)C(C)(C)[C@@H]5CC[C@]43C)[C@@H]12 [BEVIRIMAT] | > 20 | > 20
3 | C=C(c1ccc(C(=O)O)cc1)c1cc2c(cc1C)C(C)(C)CCC2(C)C [BEXAROTENE] | > 20 | > 20
4 | CC(C)(Oc1ccc(CCNC(=O)c2ccc(Cl)cc2)cc1)C(=O)O [BEZAFIBRATE] | > 20 | > 20
5 | COc1ccc(-c2ccc3ncc4c(c3c2)n(-c2ccc(N3CCNCC3)c(C(F)(F)F)c2)c(=O)n4C)cn1 [BGT-226 FREE BASE] | > 20 | > 20
6 | CC(O)(CS(=O)(=O)c1ccc(F)cc1)C(=O)Nc1ccc(C#N)c(C(F)(F)F)c1 (centres undefined) [BICALUTAMIDE] | > 20 | > 20
7 | Cc1ccc(C23CNCC2C3)cc1 (centres undefined) [BICIFADINE] | > 20 | > 20
8 | CN1CCc2cc3c(cc2[C@H]1[C@@H]1OC(=O)c2c1ccc1c2OCO1)OCO3 [BICUCULLINE] | > 20 | > 20
9 | CCN(CC)CCOC(=O)C(c1ccccc1)N1CCCCC1 (centres undefined) [BIETAMIVERINE] | > 20 | > 20
10 | c1ccc(-c2ccc(C(c3ccccc3)n3ccnc3)cc2)cc1 (centres undefined) [BIFONAZOLE] | > 20 | > 20
11 | COc1c(C)cnc(Cn2cnc3c(Cl)nc(N)nc32)c1C [BIIB021] | > 20 | > 20
12 | C=CC1=C(C)/C(=C/c2[nH]c(Cc3[nH]c(/C=C4\NC(=O)C(C)=C4C=C)c(C)c3CCC(=O)O)c(CCC(=O)O)c2C)NC1=O [BILIRUBIN] | > 20 | > 20
13 | CCN1c2ncc(CCOc3cc[n+]([O-])c4ccccc34)cc2C(=O)N(C)c2cccnc21 [BILR 355] | > 20 | > 20
14 | Nc1cc(C(F)(F)F)c(-c2nc(N3CCOCC3)nc(N3CCOCC3)n2)cn1 [BIMIRALISIB] | > 20 | > 20
15 | O=C(O)Cc1cccc(-c2cc(CCCCCCc3ccc(O[C@H]4O[C@H](CO)[C@@H](O)[C@H](O)[C@@H]4O)c(-c4cccc(CC(=O)O)c4)c3)ccc2O[C@H]2O[C@H](CO)[C@@H](O)[C@H](O)[C@@H]2O)c1 [BIMOSIAMOSE] | > 20 | > 20
16 | Cn1cnc2c(F)c(Nc3ccc(Br)cc3F)c(C(=O)NOCCO)cc21 [BINIMETINIB] | > 20 | > 20
17 | Cc1sc2c(c1C)C(c1ccc(Cl)cc1)=N[C@@H](CC(=O)Nc1ccc(O)cc1)c1nnc(C)n1-2 [BIRABRESIB] | > 20 | > 20
18 | CC[C@H](NC(=O)[C@H](C)NC)C(=O)N1C[C@@H](O)C[C@H]1Cc1c(-c2[nH]c3cc(F)ccc3c2C[C@@H]2C[C@H](O)CN2C(=O)[C@H](CC)NC(=O)[C@H](C)NC)[nH]c2cc(F)ccc12 [BIRINAPANT] | > 20 | > 20
19 | CC(=O)Oc1ccc(C(c2ccc(OC(C)=O)cc2)c2ccccn2)cc1 [BISACODYL] | > 20 | > 20
20 | CC(C)(C)CC(C)(C)c1cc(Cc2cc(C(C)(C)CC(C)(C)C)cc(-n3nc4ccccc4n3)c2O)c(O)c(-n2nc3ccccc3n2)c1 [BISOCTRIZOLE] | > 20 | > 20
21 | CC(C)NCC(O)COc1ccc(COCCOC(C)C)cc1 (centres undefined) [BISOPROLOL] | > 20 | > 20
22 | [O-][S+](c1cc(Cl)cc(Cl)c1O)c1cc(Cl)cc(Cl)c1O [BITHIONOLOXIDE] | > 20 | > 20
23 | Oc1c(Cl)cc(Cl)cc1Sc1cc(Cl)cc(Cl)c1O [BITHIONOL] | > 20 | > 20
24 | CC(C)(C)c1cnc(CSc2cnc(NC(=O)C3CCNCC3)s2)o1 [BMS-387032] | > 20 | > 20

Row | Structure (SMILES) | IC50 [µM] | IC50 (read-out: pIC50 (converted)) [µM]
25 | COc1cccc(Nc2ncnn3ccc(CN4CC[C@@H](N)[C@H](O)C4)c23)c1 [BMS-690514] | > 20 | > 20
26 | Cn1c(N2CCCCS2(=O)=O)nc(C(=O)NCc2ccc(F)cc2)c(O)c1=O [BMS-707035] | > 20 | > 20
27 | CCOc1ccn(-c2ccc(F)cc2)c(=O)c1C(=O)Nc1ccc(Oc2ccnc(N)c2Cl)c(F)c1 [BMS-777607] | > 20 | > 20
28 | CCn1c(C(=O)N(C2CC2)C2CC2)cc2c3c(ncn3C)c(Nc3cc(C)n(C)n3)nc21 [BMS-911543] | > 20 | > 20
29 | Cc1c(-c2c(F)cc(C(N)=O)c3[nH]c4c(c23)CC[C@H](C(C)(C)O)C4)cccc1-n1c(=O)c2cccc(F)c2n(C)c1=O [BMS-986142] | > 20 | > 20
30 | OC(CCCN1CCN(c2ncc(F)cn2)CC1)c1ccc(F)cc1 (centres undefined) [BMY-14802] | > 20 | > 20
31 | CC(C)(C)NC(=O)N[C@H](C(=O)N1C[C@H]2[C@@H]([C@H]1C(=O)NC(CC1CCC1)C(=O)C(N)=O)C2(C)C)C(C)(C)C (some centres undefined) [BOCEPREVIR] | > 20 | > 20
32 | COc1ccccc1Oc1c(NS(=O)(=O)c2ccc(C(C)(C)C)cc2)nc(-c2ncccn2)nc1OCCO [BOSENTAN] | > 20 | > 20
33 | COc1cc(Nc2c(C#N)cnc3cc(OCCCN4CCN(C)CC4)c(OC)cc23)c(Cl)cc1Cl [BOSUTINIB] | > 20 | > 20
34 | CC#CC(=O)N[C@H]1CCCN(c2c(F)cc(C(N)=O)c3[nH]c(C)c(C)c23)C1 [BRANEBRUTINIB] | > 20 | > 20
35 | Cc1nc(COc2ccc(C[C@H](NC(=O)O[C@H]3CO[C@H]4OCC[C@H]43)[C@H](O)CN(CC(C)C)S(=O)(=O)c3ccc4c(c3)OCO4)cc2)cs1 [BRECANAVIR] | > 20 | > 20
36 | CCC12CCN(CC3(O)CC3)C(Cc3ccc(O)cc31)C2(C)C (centres undefined) [BREMAZOCINE] | > 20 | > 20
37 | CC(C)(C)OC(=O)c1ncn2c1[C@@H]1CCCN1C(=O)c1c(Br)cccc1-2 [BRETAZENIL] | > 20 | > 20
38 | CC[N+](C)(C)Cc1ccccc1Br [BRETYLIUM] | > 20 | > 20
39 | Brc1c(NC2=NCCN2)ccc2nccnc12 [BRIMONIDINE] | > 20 | > 20
40 | CCN[C@H]1CN(CCCOC)S(=O)(=O)c2sc(S(N)(=O)=O)cc21 [BRINZOLAMIDE] | > 20 | > 20
41 | Cc1cc2c(F)c(Oc3ncnn4cc(OC[C@@H](C)OC(=O)[C@H](C)N)c(C)c34)ccc2[nH]1 [BRIVANIB ALANINATE] | > 20 | > 20
42 | Cc1cc2c(F)c(Oc3ncnn4cc(OC[C@@H](C)O)c(C)c34)ccc2[nH]1 [BRIVANIB] | > 20 | > 20
43 | CCC[C@@H]1CC(=O)N([C@@H](CC)C(N)=O)C1 [BRIVARACETAM] | > 20 | > 20
44 | O=c1[nH]c(=O)n([C@H]2C[C@H](O)[C@@H](CO)O2)cc1/C=C/Br [BRIVUDINE] | > 20 | > 20
45 | CC1(C)OC(=O)Nc2ccc(Br)cc21 [BROFOXINE] | > 20 | > 20
46 | O=C1CN=C(c2ccccn2)c2cc(Br)ccc2N1 [BROMAZEPAM] | > 20 | > 20
47 | CCN(CC)C(=O)N[C@H]1C=C2c3cccc4[nH]c(Br)c(c34)C[C@H]2N(C)C1 [BROMERGURIDE] | > 20 | > 20

From ChEMBL document CHEMBL4651402, “Screening of ~5500 FDA-approved drugs and clinical candidates for anti-SARS-CoV-2 activity” (2021)
